The results in this text go back to patent publication US20180320217A1, “METHODS FOR SAMPLING AND MEASURING ORAL LAVAGE PROTEINS” (The Procter & Gamble Company, priority 2017, published 2018).

Experiment [1] has as its target T1, Malate dehydrogenase (Sus scrofa, UniProt P00346).
T1 sequence (P00346 25-338): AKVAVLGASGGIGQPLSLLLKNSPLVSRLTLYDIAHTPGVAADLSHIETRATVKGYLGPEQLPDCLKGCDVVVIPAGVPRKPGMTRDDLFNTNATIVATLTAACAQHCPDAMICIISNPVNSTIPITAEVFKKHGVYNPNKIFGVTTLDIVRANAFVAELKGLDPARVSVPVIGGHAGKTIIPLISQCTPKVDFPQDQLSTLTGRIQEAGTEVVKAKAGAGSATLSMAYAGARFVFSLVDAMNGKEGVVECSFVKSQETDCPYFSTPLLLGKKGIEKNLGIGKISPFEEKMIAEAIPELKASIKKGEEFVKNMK
As to the kind of experiment: Effect of concentrations of malate on formation of formazan dyes (FIG. 6). It counts as biochemical. The following applies: 2 mM WST-8, 128.5 μM NAD+, 1.5 units malate dehydrogenase. On the set-up: purchased Sigma-Aldrich 10127248001 / 10127914001 (MDH). Here is the method: Substrate concentrations are important parameters in an enzymatic assay. An experiment was carried out to determine the effect of malate concentrations on formation of formazan dyes. […] Absorbance was measured every 5 minutes for 2 hours. […] But at low concentrations from 0.001 mM to 15.6 mM, formation of formazan dyes was positively correlated with malate concentrations.
(In general: Tetrazolium assays rely on reduction of a dye to a coloured formazan, in cell work by metabolically active cells.)

In experiment [2] the target is T1, Malate dehydrogenase. Kind of experiment: Effect of concentrations of NAD+ on formation of formazan dyes (FIG. 5). It counts as biochemical. Set-up: purchased Sigma-Aldrich 10127248001 / 10127914001 (MDH). The following applies: 2 mM WST-8, 15 mM malate, 1.5 units malate dehydrogenase. Here is the method:
To determine optimal conditions for quantifying enzymes in the gingival brush samples, oral lavage and gingival plaques, an experiment was carried out to determine the effect of NAD+ on conversion of tetrazolium salts to formazan dyes. […] Absorbance was taken at every 5 minutes for 2 hours.

As to `O=C(O)CC(O)C(=O)O` (centres unmarked) [malate], the “malate concentrations that inhibited production of formazan dyes” value at Malate dehydrogenase [1] is reported as “above 65 mM”. Take `NC(=O)c1ccc[n+]([C@@H]2O[C@H](COP(=O)([O-])OP(=O)(O)OC[C@H]3O[C@@H](n4cnc5c(N)ncnc54)[C@H](O)[C@@H]3O)[C@@H](O)[C@H]2O)c1` [NAD+, Nicotinamide adenine dinucleotide]: the “amount of formazan formation versus NAD+ concentration” value on Malate dehydrogenase [2] is reported as “proportional to the concentrations of NAD+”.
